Data: patent US20260034200A1, “TOLEROGENIC PEPTIDES” (University of Birmingham, priority 2022, published 2026)
Ends that are not written are not given here.

Columns and labels:
[1] = tested on: GAD65 P10-specific T-cell hybridomas; test: T-cell hybridoma screen with Priess cells as APCs, IL-2 ELISA; format: cell-based, mouse; conditions: for epitope mapping by hybridoma response: 15-mers and truncated peptides, hybridomas SC3 and SC22, 48 h co-culture
Description: HLA-DR4 transgenic mice were injected subcutaneously with Complete Freund's Adjuvant (CFA) and 100 μg of GAD65 P10 30-mer. After 10 days, splenocytes were isolated and re-stimulated with GAD65 P10 30-mer for a further 4-5 days before fusion with hypoxanthine-aminopterin-thymidine (HAT) sensitive BW5147 cells using polyethylene glycol (PEG). Fused hybridomas were expanded in HAT selection media before antigen-specific screening. Co-cultures of 1×10^5 hybridomas and 2×10^5 Priess cells (an Epstein-Barr Virus (EBV) transformed DR4 (DRB1*04:01) expressing human cell line (ECACC 86052111)) as antigen presenting cells (APCs) were incubated for 48 h in a 96-well plate with peptide, whole GAD65 protein, or media only. Antigen-specific responses were determined by IL-2 secretion into culture supernatant by ELISA assay (BioLegend 431004). Hybridomas that proliferated in response to both GAD65 protein and GAD65 30-mer were single cell cloned by limiting dilution.
Six 15-mers that spanned the parent 30-mer amino acid sequence were generated by 3 amino acid shifts from the N-terminus toward the C-terminus.

[2] = Solubility in PBS; format: physicochemical
Description: Peptides were synthesized by GL Biochem (Shanghai) Ltd or Genscript (Leiden, The Netherlands). Peptides were >90% purity, resuspended from lyophilised powder in either 100% v/v dimethyl sulfoxide (DMSO) for 30-mers or PBS for soluble peptides. GAD65 protein was synthesised by Biologics Corporation. Purified protein derivative (PPD; Prionics; 7600060) was used at 300 IU/mL. Keyhole limpet haemocyanin (KLH; ThermoFisher Scientific; 77600) was used at 20 μg/mL.
Iterations designed around the core minimal epitope included retention of non-critical residues and/or addition of multiple lysine residues to both the N- and C-termini (FIG. 3E). […] Although P10.5.C.6K contains only the critical core epitope with additional lysine residues, the re-inclusion of the single non-critical alanine at the C-terminus (P10.5.C+1.6K), increased the potency of the single-clone hybridoma response by 10-fold (FIG. 3F).

[3] = tested on: MHC class II molecules on fixed or non-fixed HLA-DR4 transgenic mouse splenocytes (hybridoma SC3 readout); test: Fixed APC T-cell hybridoma screen; format: cell-based; conditions: co-culture with formaldehyde fixed and non-fixed HLA-DR4 splenocytes, 48 h
Description: Splenocytes from HLA-DR4 transgenic mice were formaldehyde fixed by the following protocol performed at room temperature; 5 min incubation with 0.5% w/v formaldehyde in PBS at 1×10^6 cells/mL quenched by addition of an equal volume of 0.4 M glycine in PBS solution for a further 5 min, before three washes with cold PBS. T-cell hybridoma screens were set up using 1×10^5 hybridomas and either 2×10^5 formaldehyde fixed APCs or 2×10^5 non-fixed APCs for 48 h co-culture with stimulant or control and responses measured by IL-2 secretion.
(§1) The next step was to test if GAD65 P10.5.C+1.6K (P10Sol; SEQ ID NO 23) could bind to: (i) MHC class II molecules without antigen processing and, (ii) to steady-state CD11c^+ APCs. These properties are good indicators of whether a peptide can induce tolerance and be characterised as an apitope (Shepard et al., 2021). Formaldehyde fixation of splenocytes inhibits antigen processing and so to test whether GAD65 P10Sol could bind directly to cell-surface MHC class II without antigen processing, GAD65 P10-specific hybridoma SC3 was co-cultured with fixed or non-fixed splenocytes from HLA-DR4 transgenic mice. […] To test whether P10Sol could bind to steady-state CD11c^+ APCs in vivo, HLA-DR4 transgenic mice were injected with 80 μg of P10Sol or PBS, with CD11c^+ splenocytes isolated 1 h later and co-cultured with GAD65 P10 hybridomas SC3 or SC22. […]

[4] = tested on: steady-state CD11c+ APCs; test: Steady state CD11c+ peptide binding assay; format: in vivo, HLA-DR4 transgenic mice; conditions: antigen added exogenously to the in vitro culture
Description: HLA-DR4 transgenic mice were injected subcutaneously with 80 μg of GAD65 P10.5.C+1.6K (GAD65 P10Sol) peptide, before isolation of CD11c^+ splenocytes 1 h later CD11c^+ positive selection kit (Miltenyi; 130-125-835). T-cell hybridoma responses were measured by secreted IL-2 after a 48 h co-culture of 0.5×10^5 CD11c^+ cells with 1×10^5 GAD65 P10-specific hybridomas with or without exogenous antigen added in vitro.
as §1

[5] = biological target: TCRs of individuals with type 1 diabetes; test: cell-based or functional assay
[6] = biological target: T1, HLA-DR4 MHC class II (HLA-DRA*0101, HLA-DRB1*0401) (human, UniProt P01903 26-254; P01911 30-266, limits assumed); test: cell-based or functional assay
T1 MHC II alpha: not shown
T1 MHC II beta: not shown

[7] = biological target: T1, HLA-DR4 MHC class II (HLA-DRA*0101, …); test: IL-2 response of hybridoma SC3 with formaldehyde-fixed or non-fixed HLA-DR4 transgenic splenocytes
Source text: as §1, with “CD11c⁺” for “CD11c^+”, “mice. Response to whole GAD65 protein required antigen processing from non-fixed splenocytes, whereas both GAD65 P10 30-mer and GAD65 P10Sol (SEQ ID NO 23) induced strong IL-2 responses from hybridoma SC3 when co-cultured with both fixed and non-fixed splenocytes (FIG. 3G).” for “mice.”

KHKWKLSGVERANSV [P10.5 15-mer]
epitope mapping by hybridoma response [1]: responsive 15-mer

KKKWKLSGVERAKKK [Peptide P10Sol, KKKWKLSGVERAKKK]
solubility in PBS [2]: highly soluble

KKKWKLSGVERKKK [Peptide P10.5.C.6K, KKKWKLSGVERKKK]
solubility in PBS [2]: highly soluble

WKLSGVER [Peptide P10.5.C]
epitope mapping by hybridoma response [1]: minimal core epitope

glutamate decarboxylase 65 (GAD65) [GAD65 protein, reference compound]
hybridoma IL-2 response ([1]; hybridoma multi-clone 6 with HLA-DRB1*04:01 expressing APCs): could respond | IL-2 response from hybridoma SC3 [3]: required antigen processing from non-fixed splenocytes | IL-2 response of P10-specific hybridomas to CD11c+ cells from PBS injected mice [4]: observed

B1: GAD65 P10.5.C+1.6K (P10Sol) (peptide)
peptide: KKKWKLSGVERAKKK
FAIM+ (CD25+ CD71+ CTVmid CD4 T-cell) response of T1D patient PBMCs; share of P10 30-mer responders that also responded to P10Sol [5]: 38% | potency of the single-clone hybridoma IL-2 response with Priess cells, against P10.5.C.6K (SEQ ID NO 22) [6]: 10 fold

B2: GAD65 P10 30-mer (peptide)
peptide: DAAWGGGLLMSRKHKWKLSGVERANSVTWN
notes: Synthetic 30-residue fragment of human GAD65
binding result [7]: binds
